Measurements: PMC2830364 (Antiviral research, 2009)
Read-outs that look alike come from different tables or passages of the source.

Legend:
Assay type in all cases: biochemical
[1] = biological target: T1, puromycin-sensitive aminopeptidase (APP-S) (Homo sapiens, UniProt P55786); assay: chromogenic hydrolysis kinetics at […] nm with purified recombinant enzyme
[2] = biological target: T1, puromycin-sensitive aminopeptidase (APP-S); assay: inhibition of purified recombinant APP-S hydrolysis of Ala-pNA/Val-pNA
[3] = biological target: T1, puromycin-sensitive aminopeptidase (APP-S)

T1 sequence (P55786 whole entry): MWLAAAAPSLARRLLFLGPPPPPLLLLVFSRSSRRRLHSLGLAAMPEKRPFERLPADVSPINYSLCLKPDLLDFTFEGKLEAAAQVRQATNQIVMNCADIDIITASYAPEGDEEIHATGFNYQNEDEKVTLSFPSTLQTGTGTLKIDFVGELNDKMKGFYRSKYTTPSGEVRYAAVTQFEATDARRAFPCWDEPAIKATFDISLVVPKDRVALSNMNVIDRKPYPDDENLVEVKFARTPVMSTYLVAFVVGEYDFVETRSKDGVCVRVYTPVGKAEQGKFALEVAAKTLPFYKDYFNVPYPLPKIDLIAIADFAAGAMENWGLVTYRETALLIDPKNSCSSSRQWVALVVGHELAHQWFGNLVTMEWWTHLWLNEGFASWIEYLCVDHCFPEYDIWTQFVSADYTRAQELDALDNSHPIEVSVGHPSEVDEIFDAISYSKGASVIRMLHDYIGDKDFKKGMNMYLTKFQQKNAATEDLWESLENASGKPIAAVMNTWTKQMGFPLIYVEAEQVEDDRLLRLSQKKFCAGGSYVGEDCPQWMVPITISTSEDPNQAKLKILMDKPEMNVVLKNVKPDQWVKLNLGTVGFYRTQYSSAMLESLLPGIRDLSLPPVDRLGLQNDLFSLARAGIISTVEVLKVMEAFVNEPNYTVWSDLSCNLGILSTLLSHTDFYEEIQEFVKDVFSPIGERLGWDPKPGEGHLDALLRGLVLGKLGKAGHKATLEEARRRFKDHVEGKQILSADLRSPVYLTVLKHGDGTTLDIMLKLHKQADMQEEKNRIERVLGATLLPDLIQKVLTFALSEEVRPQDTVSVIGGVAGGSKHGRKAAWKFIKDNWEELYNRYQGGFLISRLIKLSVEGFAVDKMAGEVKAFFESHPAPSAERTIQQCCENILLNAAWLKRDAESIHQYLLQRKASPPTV

**Q.** C[C@H](N)C(=O)Nc1ccc([N+](=O)[O-])cc1 [Ala-pNA] was tested. Which Km [1] did it give?
**A.** The Km was 510 ± 140 µM.

**Q.** For CC(C)[C@H](N)C(=O)Nc1ccc([N+](=O)[O-])cc1 [Val-pNA], which Km [1] is on record?
**A.** The Km was 280 ± 190 µM.

**Q.** CC(C)C[C@H](NC(=O)[C@@H](O)[C@H](N)Cc1ccccc1)C(=O)O [bestatin] was tested. Which “inhibition of purified recombinant APP-S hydrolysis of Ala-pNA/Val-pNA (405 nm)” value [2] did it give?
**A.** Its value is “APP-S hydrolysis of the model substrates was completely inhibited by the addition of bestatin”.

**Q.** How did the Km [3] turn out when COC(=O)[C@H](CO[P@@]1(=O)COC(Cn2ccc(N)nc2=O)CO1)NC(=O)[C@@H](N)C(C)C (stereo partly drawn) [compound 2, Methyl (S)-2-((S)-2-Amino-3-methyl-butyrylamino)-3-[(S)-5-(4-amino-2-oxo-2H-pyrimidin-1-ylmethyl)-2-oxido-1,4,2-dioxaphosphinan-2-yloxy]propanoate] was run?
**A.** Its Km is 850 ± 330 µM.
